Key:
[1] = Encapsulation efficiency of lipid nanoparticles (Quant-it Ribogreen RNA quantification assay); format: physicochemical; conditions: LNP encapsulating hEPO mRNA
Protocol: (§1) Briefly, a cationic lipid provided herein, DSPC, cholesterol, and PEG-lipid were solubilized in ethanol at a molar ratio of 50:10:38.5:1.5, and mRNA were diluted in 10 to 50 mM citrate buffer, pH=4. The LNPs were prepared at a total lipid to mRNA weight ratio of approximately 10:1 to 30:1 by mixing the ethanolic lipid solution with the aqueous mRNA solution at a volume ratio of 1:3 using a microfluidic apparatus, total flow rate ranging from 9-30 mL/min. Ethanol were thereby removed and replaced by DPBS using dialysis. Finally, the lipid nanoparticles were filtered through a 0.2 μm sterile filter.
(§2) Lipid nanoparticle size were determined by dynamic light scattering using a Malvern Zetasizer Nano ZS (Malvern UK) using a 173° backscatter detection mode. The encapsulation efficiency of lipid nanoparticles were determined using a Quant-it Ribogreen RNA quantification assay kit (Thermo Fisher Scientific, UK) according to the manufacturer's instructions.

[2] = Lipid nanoparticle size by dynamic light scattering (Malvern Zetasizer Nano ZS); format: physicochemical; conditions: LNP: cationic lipid/DSPC/cholesterol/PEG-lipid 50:10:38.5:1.5, hEPO mRNA
Protocol: as §1, §2

[3] = tested on: human erythropoietin (hEPO) mRNA; test: Animal study: hEPO expression after tail vein injection of LNPs encapsulating hEPO mRNA (serum ELISA); format: in vivo; conditions: hEPO level, female ICR mice, 0.5 mg/kg, 6 hours post administration; for Expression at 6 h: Table 2; for Expression at 6 h (μg/ml): class symbols, Table 3
Protocol: Lipid nanoparticles comprising compounds 1-10 encapsulating human erythropoietin (hEPO) mRNA were systemically administered to 6-8 week old female ICR mice (Xipuer-Bikai, Shanghai) at 0.5 mg/kg dose by tail vein injection and mice blood were sampled at specific time points (e.g., 6 hours) post administration. In addition to the aforementioned tested groups, lipid nanoparticles comprising dilinoleylmethyl-4-dimethylaminobutyrate (DLin-MC3-DMA, usually abbreviated to MC3) encapsulating hEPO mRNA were similarly administered at the same dose to age and gender comparative groups of mice as a positive control.
Mice were euthanized by CO2 overdoses after the last sampling time point. Serum were separated from total blood by centrifugation at 5000 g for 10 minutes at 4° C., snap-frozen and stored at −80° C. for analysis. ELSA assay were carried out using a commercial kit (DEP00, R&D systems) according to manufacturer's instructions.
Characteristics of tested lipid nanoparticles, including hEPO expression levels (μg/ml) measured from the tested group are listed the tables below and plotted in FIG. 2.

[4] = Apparent pKa of LNP formulations (TNS fluorescence assay); conditions: LNP cationic lipid/DSPC/cholesterol/DMG-PEG 50/10/38.5/1.5 mol %
Protocol: The apparent pKa of each formulation was determined using an assay based on fluorescence of 2-(p-toluidino)-6-napthalene sulfonic acid (TNS). LNP formulations comprising of cationic lipid/DSPC/cholesterol/DMG-PEG (50/10/38.5/1.5 mol %) in PBS were prepared as described above. TNS was prepared as a 300 uM stock solution in distilled water. LNP formulations were diluted to 0.1 mg/ml total lipid in 3 mL of buffered solutions containing 50 mM sodium citrate, 50 mM sodium phosphate, 50 mM sodium borate, and 30 mM sodium chloride where the pH ranged from 3 to 9. An aliquot of the TNS solution was added to give a final concentration of 0.1 mg/ml and following vortex mixing fluorescence intensity was measured at room temperature in a Molecular Devices Spectramax iD3 spectrometer using excitation and mission wavelengths of 325 nm and 435 nm. A sigmoidal best fit analysis was applied to the fluorescence data and the pKa value was measured as the pH giving rise to half-maximal fluorescent intensity.

| Encapsulation Efficiency ([1]; Table 2) [%] | polydispersity ([2]; Table 2) | size nm ([2]; Table 2) [nm] | Apparant Pka ([4]; Table 2) | Encapsulation Efficiency ([1]; Table 3) [%] | polydispersity ([2]; Table 3) | size nm ([2]; Table 3) [nm] | Apparant Pka ([4]; Table 3) | SMILES | Expression at 6 h [3] [µg/mL] | Expression at 6 h (μg/ml) [3] |
| --- | --- | --- | --- | --- | --- | --- | --- | --- | --- | --- |
|  |  |  |  | 98.87 | 0.225 | 54.69 | 4.403 | CCCCCCCCC(CCCCCC)COC(=O)CCCCCC(CCCCCC(=O)OCC(CCCCCC)CCCCCCCC)CN(CC)CCO (centres unmarked) [Compound 16] |  | D (<0.1) |
|  |  |  |  | 100.16 | 0.15 | 71.85 | 6.327 | CCCCCCCCC(CCCCCC)COC(=O)CCCCCC(CCCCCC(=O)OCC(CCCCCC)CCCCCCCC)CCCN(C)CCO (centres unmarked) [Compound 18] |  | C (≥0.1 and <1) |
|  |  |  |  | 30.1 | 0.285 | 264.9 |  | CCCCCCCCNC(=O)CCCCCN(CCCCCC(=O)NCCCCCCCC)CCN(CCO)C1CCCCC1 [Compound 123] |  | A (≥2) |
|  |  |  |  | 100.10 | 0.101 | 78.17 |  | CCCCCCCCC(CCCCCC)CNC(=O)CCCCCN(CCCCCC(=O)OCC(CCCCCC)CCCCCCCC)CCN(CCO)C1CCCC1 (centres unmarked) [Compound 126] |  | A (≥2) |
|  |  |  |  | 98.70 | 0.111 | 77.12 |  | CCCCCCCCC(CCCCCC)CNC(=O)CCCCCN(CCCCCC(=O)OCC(CCCCCC)CCCCCCCC)CCN(CCO)C1CCCCC1 (centres unmarked) [Compound 127] |  | A (≥2) |
|  |  |  |  | 86.10 | 0.107 | 79.73 |  | CCCCCCCCC(CCCCCC)CNC(=O)CCCCCN(CCCCCC(=O)OCC(CCCCCC)CCCCCCCC)CCN(CCO)C1CCCCCC1 (centres unmarked) [Compound 128] |  | A (≥2) |
|  |  |  |  | 91.20 | 0.131 | 63.13 |  | CCCCCCCCC(CCCCCC)CNC(=O)CCCCCN(CCCCCC(=O)NCC(CCCCCC)CCCCCCCC)CCN(CCO)C1CCCCC1 (centres unmarked) [Compound 129] |  | A (≥2) |
|  |  |  |  | 92.50 | 0.097 | 79.92 |  | CCCCCCCCC(CCCCCC)CC(=O)NCCCCCN(CCCCCOC(=O)CC(CCCCCC)CCCCCCCC)CCN(CCO)C1CCCC1 (centres unmarked) [Compound 130] |  | A (≥2) |
|  |  |  |  | 80.00 | 0.064 | 79.11 |  | CCCCCCCCC(CCCCCC)CC(=O)NCCCCCN(CCCCCOC(=O)CC(CCCCCC)CCCCCCCC)CCN(CCO)C1CCCCC1 (centres unmarked) [Compound 131] |  | A (≥2) |
|  |  |  |  | 88.00 | 0.129 | 70.33 |  | CCCCCCCCC(CCCCCC)CC(=O)NCCCCCN(CCCCCOC(=O)CC(CCCCCC)CCCCCCCC)CCN(CCO)C1CCCCCC1 (centres unmarked) [Compound 132] |  | A (≥2) |
|  |  |  |  | 94.29 | 0.063 | 61.17 |  | CCCCCCCCC(CCCCCCCC)CNC(=O)CCCCCN(CCCCCC(=O)OCC(CCCCCCCC)CCCCCCCC)CCN(CCO)C1CCCC1 [Compound 136] |  | A (≥2) |
| 98.5 | 0.042 | 79.8 |  |  |  |  |  | CCCCC/C=C\C/C=C\CCCCCCCCC(CCCCCCCC/C=C\C/C=C\CCCCC)OC(=O)CCCN(C)C [MC3, dilinoleylmethyl-4-dimethylaminobutyrate, reference compound] | 2.35 |  |

Continued, compound first:

| SMILES | Encapsulation Efficiency ([1]; Table 2) [%] | polydispersity ([2]; Table 2) | size nm ([2]; Table 2) [nm] | Apparant Pka ([4]; Table 2) | Encapsulation Efficiency ([1]; Table 3) [%] | polydispersity ([2]; Table 3) | size nm ([2]; Table 3) [nm] | Apparant Pka ([4]; Table 3) | Expression at 6 h [3] [µg/mL] | Expression at 6 h (μg/ml) [3] |
| --- | --- | --- | --- | --- | --- | --- | --- | --- | --- | --- |
| CCCCCCCCC(CCCCCC)COC(=O)CCCCCN(CCCCCC(=O)OCC(CCCCCC)CCCCCCCC)CCN(CCO)C1CCC1 (centres unmarked) [Compound 1] | 95.7 | 0.168 | 76.5 | 6.40 |  |  |  |  | 16.21 |  |
| CCCCCCCCC(CCCCCC)COC(=O)CCCCCN(CCCCCC(=O)OCC(CCCCCC)CCCCCCCC)CCN(CCO)C1CCCCC1 (centres unmarked) [Compound 2] | 96.8 | 0.065 | 75.3 | 6.27 |  |  |  |  | 6.16 |  |
| CCCCCCCCC(CCCCCC)COC(=O)CCCCCN(CCCCCC(=O)OCC(CCCCCC)CCCCCCCC)CCN(CCO)C1CCCCCC1 (centres unmarked) [Compound 3] | 96.3 | 0.060 | 58.7 | 6.22 |  |  |  |  | 2.63 |  |
| CCCCCCCCC(CCCCCC)COC(=O)CCCCCN(CCCCCC(=O)OCC(CCCCCC)CCCCCCCC)CCN(CCO)C1CC1 (centres unmarked) [Compound 4] | 98.1 | 0.068 | 57.5 | 5.87 |  |  |  |  | 0.48 |  |
| CCCCCCCCC(CCCCCC)COC(=O)CCCCCN(CCCCCC(=O)OCC(CCCCCC)CCCCCCCC)CCN(CCO)C1CCCC1 (centres unmarked) [Compound 5] | 96.2 | 0.029 | 54.0 | 6.24 |  |  |  |  | 0.25 |  |
| CCCCCCCCC(CCCCCC)COC(=O)CCCCCN(CCCCCC(=O)OCC(CCCCCC)CCCCCCCC)CCN(CCO)C1CCCCCCC1 (centres unmarked) [Compound 6] | 96.6 | 0.109 | 60.5 | 5.88 |  |  |  |  | 0.00 |  |
| CCCCCCCCC(CCCCCC)COC(=O)CCCCCN(CCCCCC(=O)OCC(CCCCCC)CCCCCCCC)CCN(CCO)c1ccccc1 (centres unmarked) [Compound 7] | 47.0 | 0.110 | 149.1 | 5.39 |  |  |  |  | 0.00 |  |
| CCCCCCCCC(CCCCCC)COC(=O)CCCCCN(CCCCCC(=O)OCC(CCCCCC)CCCCCCCC)CCN(C(=O)CCO)C1CCC1 (centres unmarked) [Compound 8] | 96.9 | 0.065 | 54.7 | 5.84 |  |  |  |  | 0.00 |  |
| CCCCCCCCC(CCCCCC)COC(=O)CCCCCN(CCCCCC(=O)OCC(CCCCCC)CCCCCCCC)CCN(CCCO)C1CCCCC1 (centres unmarked) [Compound 9] | 93.3 | 0.106 | 77.6 | 6.01 |  |  |  |  | 0.86 |  |
| CCCCCCCCC(CCCCCC)COC(=O)CCCCCN(CCCCCC(=O)OCC(CCCCCC)CCCCCCCC)CCN(CCCO)C1CCCCCC1 (centres unmarked) [Compound 10] | 96.0 | 0.113 | 69.2 | 5.83 |  |  |  |  | 0.79 |  |
| CCCCCCCCC(CCCCCC)COC(=O)CCCCCN(CCCCCC(=O)OCC(CCCCCC)CCCCCCCC)C(=O)CN(CCO)C1CCC1 (centres unmarked) [Compound 11] |  |  |  |  | 90.9 | 0.109 | 67.23 | 5.662 |  | D (<0.1) |
| CCCCCCCCC(CCCCCC)COC(=O)CCCCCN(CCCCCC(=O)OCC(CCCCCC)CCCCCCCC)C(=O)CCN(CCO)C1CCC1 (centres unmarked) [Compound 12] |  |  |  |  | 99.80 | 0.015 | 75.86 | 5.801 |  | D (<0.1) |
| CCCCCCCCC(CCCCCC)COC(=O)CCCCCN(CCCCCC(=O)OCC(CCCCCC)CCCCCCCC)C(=O)CCCN(CCO)C1CCC1 (centres unmarked) [Compound 13] |  |  |  |  | 96.8 | 0.095 | 89.96 | 7.206 |  | C (≥0.1 and <1) |
| CCCCCCCCC(CCCCCC)COC(=O)CCCCCC(CCCCCC(=O)OCC(CCCCCC)CCCCCCCC)CN(C)CCO (centres unmarked) [Compound 14] |  |  |  |  | 94.9 | 0.172 | 60.13 | 9.356 |  | C (≥0.1 and <1) |
| CCCCCCCCC(CCCCCC)COC(=O)CCCCCC(CCCCCC(=O)OCC(CCCCCC)CCCCCCCC)CN(CCO)C1CCC1 (centres unmarked) [Compound 15] |  |  |  |  | 89.8 | 0.313 | 51.17 | 9.21 |  | D (<0.1) |
